Eight compounds from PubChem BioAssay (NCI) can be followed below.

Some test systems named below: SNB-75 CNS; HS 578T breast; UACC-62 melanoma; SN12C renal; SK-MEL-5 melanoma; MDA-MB-231 breast; KM12 colon; NCI-H460 lung; UO-31 renal; SK-MEL-28 melanoma; OVCAR-4 ovarian; BT-549 breast; SK-MEL-2 melanoma; SR leukemia; SW-620 colon; EKVX NSCLC; A498 renal.
Holding throughout (test): NCI-60 cell line screen, 48 h

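Growth conditions: 96-well plates. Treatment: test compound, 48 hours, 5 concentrations. Analysis: linear interpolation between bracketing concentrations; unreached endpoints set to highest concentration. TGI denotes the concentration required for complete inhibition of growth.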 Where only a bound is given, the exact number is not on record here.

Take `Cc1nc2ccc(S(=O)(=O)O)cc2c(=O)n1-c1ccc(C(=O)NN2C(=O)C(Cl)C2c2cccs2)cc1` (stereo unspecified): the TGI with SNB-75 CNS is more than 100 µM; in the test with HS 578T breast, more than 100 µM; in the test on UACC-62 melanoma, more than 100 µM; in the test on SN12C renal, more than 100 µM; with SK-MEL-5 melanoma, more than 100 µM; with MDA-MB-231 breast, 45.1 µM. The TGI in the test on KM12 colon is more than 100 µM; in the test with NCI-H460 lung, more than 100 µM; with UO-31 renal, more than 100 µM; with SK-MEL-28 melanoma, more than 100 µM; in the test with OVCAR-4 ovarian, 79.7 µM; with BT-549 breast, more than 100 µM. The TGI with SK-MEL-2 melanoma was 54.1 µM; with SR leukemia, more than 100 µM; with SW-620 colon, more than 100 µM; in the test with EKVX NSCLC, 35.3 µM; with A498 renal it was more than 100 µM.

As for `COC(=O)c1ccc(CCC2=CC(=O)C=CC2=O)cc1`, the TGI with SNB-75 CNS is 32 µM; with HS 578T breast, 75.2 µM; in the test on UACC-62 melanoma it was 29.3 µM; with SN12C renal, more than 55.9 µM; with SK-MEL-5 melanoma, 30.2 µM; in the test with MDA-MB-231 breast it was more than 68.4 µM. The TGI with KM12 colon amounted to 27 µM; in the test with NCI-H460 lung, 35.9 µM; with UO-31 renal it was 19.9 µM; with SK-MEL-28 melanoma, 26 µM; with OVCAR-4 ovarian it was 38.4 µM; in the test on BT-549 breast it was 24.4 µM. In addition, the TGI stood at 30.4 µM with SK-MEL-2 melanoma; 5.82 µM in the test on SR leukemia; 26.2 µM in the test on SW-620 colon; 38.7 µM with EKVX NSCLC; 32.9 µM with A498 renal.

For `Nc1nccc(NCC2(CO)CC(CCc3ccccc3)C2)n1` (stereo unspecified), the TGI in the test with SNB-75 CNS worked out at 40.5 µM; in the test with HS 578T breast, 52.9 µM; with UACC-62 melanoma, 28.5 µM; in the test with SN12C renal, 60.2 µM; in the test on SK-MEL-5 melanoma, 16.9 µM; in the test on MDA-MB-231 breast, 48.9 µM. In addition, the TGI in the test on KM12 colon turned out to be 41.7 µM; in the test on NCI-H460 lung, 28.4 µM; with UO-31 renal it was 32.3 µM; in the test on SK-MEL-28 melanoma, 36.5 µM; in the test on OVCAR-4 ovarian, 47.2 µM; in the test with BT-549 breast, 40.3 µM. For the same compound, the TGI was determined as 32.8 µM in the test with SK-MEL-2 melanoma; 52.6 µM in the test with SR leukemia; 43.7 µM in the test on SW-620 colon; 46.9 µM in the test on EKVX NSCLC; 29.3 µM in the test on A498 renal.

Regarding `Cc1ccc2c(=O)cc(-c3cc(C)sc3C)[nH]c2n1`, the TGI in the test on SNB-75 CNS is more than 29.9 µM; with HS 578T breast, 7.15 µM; with UACC-62 melanoma, more than 100 µM; in the test with SN12C renal, more than 93.4 µM; in the test with SK-MEL-5 melanoma, 16.4 µM; with MDA-MB-231 breast, 65.8 µM. For the same compound, the TGI in the test with KM12 colon, in the test with NCI-H460 lung, in the test on UO-31 renal, in the test on SK-MEL-28 melanoma, in the test with OVCAR-4 ovarian and in the test on BT-549 breast was more than 100 µM in each case. In addition, the TGI was more than 29.6 µM in the test on SK-MEL-2 melanoma; more than 86.3 µM with SR leukemia; 19.4 µM with SW-620 colon; more than 100 µM with EKVX NSCLC; more than 100 µM in the test with A498 renal.

`O=C1CSC(c2cc3cc(Br)ccc3nc2Cl)N1c1ccc(Cl)cc1` (stereo unspecified): the TGI in the test with SNB-75 CNS was more than 100 µM; with HS 578T breast, more than 100 µM; with UACC-62 melanoma, 22.6 µM; in the test on SN12C renal it was 48.7 µM; in the test with SK-MEL-5 melanoma it was 37.9 µM; with MDA-MB-231 breast it was more than 100 µM. The TGI with KM12 colon is 47.6 µM; in the test with NCI-H460 lung, 42.1 µM; in the test on UO-31 renal, more than 100 µM; in the test on SK-MEL-28 melanoma, more than 100 µM; with OVCAR-4 ovarian, 81.5 µM; in the test on BT-549 breast, 61.5 µM. For the same compound, the TGI with SK-MEL-2 melanoma was 32.2 µM; in the test on SR leukemia, 44.8 µM; in the test with SW-620 colon, more than 100 µM; in the test on EKVX NSCLC, more than 100 µM; with A498 renal it was more than 100 µM.

As for `CC(C)(C)OC(=O)/N=C/c1c(O)c2ccccc2oc1=O`, the TGI in the test with SNB-75 CNS was more than 100 µM; in the test with HS 578T breast, 65.9 µM; with UACC-62 melanoma it was more than 100 µM; with SN12C renal it was more than 100 µM; in the test with SK-MEL-5 melanoma, more than 100 µM; in the test with MDA-MB-231 breast it was 86 µM. The TGI with KM12 colon, in the test on NCI-H460 lung, in the test with UO-31 renal, in the test on SK-MEL-28 melanoma, in the test with OVCAR-4 ovarian and with BT-549 breast was more than 100 µM throughout. Further, the TGI is 45.2 µM in the test on SK-MEL-2 melanoma; more than 100 µM in the test on SR leukemia; more than 100 µM with SW-620 colon; more than 100 µM in the test with EKVX NSCLC; 78.5 µM in the test on A498 renal.

Consider `Cc1nc2ccc(N=Nc3c(C)noc3C)cc2[nH]1`, for which the TGI is 32.9 µM in the test on SNB-75 CNS; 58.4 µM in the test on HS 578T breast; 75.9 µM in the test on UACC-62 melanoma; more than 100 µM in the test on SN12C renal; 29.8 µM with SK-MEL-5 melanoma; 96.6 µM in the test on MDA-MB-231 breast. Besides, the TGI in the test with KM12 colon, in the test on NCI-H460 lung, in the test with UO-31 renal, in the test with SK-MEL-28 melanoma, with OVCAR-4 ovarian and with BT-549 breast was more than 100 µM in each case. For the same compound, the TGI in the test on SK-MEL-2 melanoma was more than 100 µM; in the test on SR leukemia it was 69.9 µM; in the test on SW-620 colon, more than 100 µM; with EKVX NSCLC it was more than 100 µM; in the test on A498 renal it was 34.8 µM.

As to `CC(C)=CCC[C@@H](C)C1=C(N)C(O)=C(C)C(=O)C1=O`, the TGI with SNB-75 CNS, with HS 578T breast, in the test with UACC-62 melanoma, in the test on SN12C renal, in the test with SK-MEL-5 melanoma and in the test on MDA-MB-231 breast was more than 75 µM throughout. The TGI in the test on KM12 colon, in the test with NCI-H460 lung, with UO-31 renal, in the test on SK-MEL-28 melanoma, in the test with OVCAR-4 ovarian and in the test with BT-549 breast was more than 75 µM throughout. In addition, the TGI with SK-MEL-2 melanoma, with SR leukemia, with SW-620 colon, with EKVX NSCLC and in the test on A498 renal was more than 75 µM in each case.
